Patent US11987835B2, “Amino acid-sensing diguanylate cyclase and methods of use” (priority 2019, dated 2024)
Substitutions are numbered along the chain they refer to. Read-outs that look alike come from different tables or passages of the source.

Assays:
[1] = tested on: Aer01 SpdE tandem PAS/dCache region (residues 37-287); experiment: Thermofluor (thermal shift) assay, Aer01 SpdE; format: binding, Aeromonas veronii; details: 10 mM pure amino acid; for thermal shift (ΔTm) in words: replicate ΔTm data
Description: (§1) Thermofluor Assay. The periplasmic portion of SpdE was cloned, expressed and purified in E. coli. Thermofluor assays were performed using a Thermo Fisher Scientific StepOnePlus Real-time PCR instrument. Each 20 μL sample contained 0.1 mg/mL SpdE protein, 4× SYPRO Orange dye, 165 mM NaCl, 80 mM Tris pH 7.5 and 10 mM ligand (free amino acid dissolved in water). All samples were done in triplicate and repeated 2-3 times on different days. All reagents and steps were performed at 4° C. and placed in 96 well PCR plates. The PCR plate was slowly heated (˜0.03° C./sec) from 4° C. to 80° C. in the StepOnePlus instrument and fluorescent measurements were taken every 8.5 sec. The resultant thermal shift curves were analyzed to find the inflexion points, which correspond to the melting temperature (Tm) of the protein (with or without ligand). Inflexion points were determined in Microsoft Excel by calculating the half way point between the minimum fluorescence value prior to fluorescence increase and the maximum fluorescence value. The Tm difference between protein with and without ligand was calculated and plotted to determine the thermal stability shift as a proxy for ligand binding.
In order to identify SpdE ligands, a thermal shift assay was conducted using 96-well Biolog Phenotype MicroArray plates as a high-throughput approach to screen compounds for ligand candidates. Using heterologously expressed and purified tandem PAS/dCache region of the protein (residues 37-287), ˜200 compounds were screened for ones that conferred a significant shift in protein thermal stability (see Table 4). […] For each curve, the melting temperature (Tm) was determined (brown circles), which corresponds to the midpoint of protein unfolding. The ΔTm (difference between test Tm and water control Tm) was calculated for each amino acid condition.

Aer01 [2] = experiment: Biofilm assay (crystal violet); format: cell-based, Aeromonas veronii; details: WT Aer01, 1 mM ligand, 48 hrs
Description: Biofilm Assay. […] To the wells of a sterile 96-well plate (Corning, flat-bottom, #3595), 150 μL of each resuspended culture was added, in triplicate. A blank control well was added for each condition using the appropriate uninoculated media. This plate was incubated at 30° C., stationary, for 48 hours. After incubation, the biofilms were quantified using a standard crystal violet biofilm staining procedure. […] Briefly, the supernatant was removed from each well, then the wells gently rinsed three times with 150 μL sterile EM. Then, 150 μL 0.1% crystal violet was added to each well and the plate was incubated at room temperature for 10 minutes, followed by five rinses with 150 μL sterile EM. To destain, 150 μL 95% ethanol was added to each well and the plate was incubated at room temperature for 10 minutes. Each well was mixed well and the contents transferred to a clean 96-well plate and the absorbance (570 nm) was read on a FLUOstar Omega microplate reader (BMG Labtech, Offenburg, Germany).

Aer01 [3] = format: cell-based, Aeromonas veronii
Description: Live imaging and quantification of Aer01 motility. […] EM containing proline or valine (pH adjusted to 7.8 with HCl/NaOH) was added to the wells to generate the desired final concentrations of amino acid (0, 1 nM, 10 nM, 100 nM, 1 μM, or 1 mM) and cell densities of OD 0.1, each performed in triplicate. The tray was covered by parafilm and incubated at 30° C. for 5 hours. Cells were imaged between hour 5-6. Prior to imaging, bacterial samples were moved to a temperature-controlled box housing the microscope, heated to 30° C. 2 ul of bacteria from treatments were applied to a well slide (MP Biomedicals 10-well multitest slides #096041805), covered with a coverslip, and imaged immediately. Videos of bacteria were captured using a Nikon Eclipse Ti inverted microscope on the GFP channel using 20× magnification at 39 frames per second. Videos of treated bacteria were analyzed with particle tracking software (Parthasarathy, Nature Methods 9:724-236, 2012) using these settings: “objects” were identified using bpfilter 3, nsize 7, and gradobjsize 0. A standard threshold of 3.99-6 was applied, depending on the degree of background. Motile bacteria were defined as objects tracked over at least 1 s (39 frames) with a standard deviation in position of pixels/frame of at least 1.
To do this, Aer01 was incubated in medium+/−ligand (ranging between 0 and 1 mM) then wet-mounted and imaged on an inverted microscope.

Aer01 [4] = format: cell-based, Aeromonas veronii; details: for exploration response: WT Aer01, 1 mM ligand versus WT without ligand, mean
Description: Exploration Assay. Overnight cultures (TSB) of Aer01 Strains were pelleted (1 mL), and resuspended in 1 ml sterile EM. […] The cultures were incubated, shaking, at 30° C. for 3 hours. An aliquot of each culture was passed through a 0.2 μM filter (Corning® Costar® Spin-X® centrifuge tube filters) to generate cell-free supernatant. To a sterile 96-well plate round-bottom plate, 80 μL of unfiltered culture was added to each well to include five replicates for each condition. To another sterile 96-well plate round-bottom plate, 80 μL of the cell-free supernatant was added to each well to replicate the layout of the culture plate. Using a Rainin Liquidator™ 96-channel benchtop pipettor, 5 μL of the cell-free supernatant was pulled up into 20 μL Rainin pipette tips. These tips then were lowered down into the wells of the culture plate so the tips were submerged to half the depth of the culture volume in the wells. This set-up was incubated at room temperature for 30 min, during which time the cells in the culture can swim up into the supernatant in the pipette tips. After incubation, the contents of the tips were ejected into the wells of a sterile 96-well plate (Corning, flat-bottom, #3595) to which 195 μL of sterile TSB medium was added to each well. This plate was immediately placed in a FLUOstar Omega microplate reader (BMG Labtech, Offenburg, Germany) and growth curves monitored by measuring absorbance (600 nm) every 10 min for 12-16 hrs, with 30° C. incubation and constant shaking. The growth curves were plotted and the times at which the absorbance passed 0.5 was determined for each plot. The time difference between a particular condition and a reference condition (as indicated in FIG. 5C) represents the “exploration response” of Aer01 in that condition.
An “exploration assay” was used to measure population-level motility. For this assay Aer01 was incubated in the presence/absence of amino acid ligand (1 mM) for˜4 hrs, then the culture was added to the wells of a 96-well plate and pipette tips filled with the cell-free supernatant of the same cultures was lowered into the wells (FIG. 13). During a 30 min incubation period the Aer01 cells in the wells swam up into the pipette tips. […] To quantify the number of cells in the pipette tips after the 30 min exploration time, the contents of the pipette tips were ejected into the wells of a 96-well plate containing rich media and growth curves were monitored. […] This time difference between conditions, “exploration response,” was calculated to compare across many strains and conditions (FIG. 12C).

Aer01 [5] = format: cell-based, Aeromonas veronii; remark: listed apart in the source
Description: For light-sheet microscope-based imaging and determination of cellular swim speeds, overnight cultures (TSB) of strains (dTomato-tagged Aer01 and dTomato-tagged ΔspdE) were washed twice with sterile EM, as above. […] FC-EM was generated by collecting the flask EM of GF 5 or 6 dpf zebrafish larvae, filter-sterilizing and storing at 4° C. A glass cuvette was filled with culture and imaged on a custom-built light sheet fluorescence microscope, as previously described (Taormina et al., Biol. Bull. 223:7-20, 2012). The light sheet optically sections bulk samples in the center of the cuvette, so as not to constrain the motility of the imaged bacteria by surfaces. Movies in a single optical plane were captured for a duration of 20 seconds (frame rate of 30 frames/sec) with excitation light provided by a 561 nm solid state laser (Coherent Sapphire 20 mW; all strains expressed dTomato fluorescent protein). […] As above, particle tracking software, which uses a radial-symmetry-based algorithm, was used to analyze images (Parthasarathy, Nature Methods 9:724-726, 2012). The following parameters were used: bpfiltsize=7, nsize=7, gradobjsize=7, 1/nhood=true. […]
Therefore, the cells were next imaged in a cuvette on a light sheet microscope where they would be recorded within a three-dimensional space and not impeded by surfaces. […]

[6] = tested on: Aer01 colonization of larval zebrafish gut; experiment: Bacterial competitions in vivo (competitive index); details: GF zebrafish; for median CI (competitive index) of ΔspdE versus WT: ligand supplemented into inoculum and flask medium (1 mM proline)
Description: Bacterial competitions in vivo. For in vivo bacterial competitions, strains (purified evolved isolates, or Aer01 genetic variants) were grown overnight in TSB from freezer stocks. 1 ml of the overnight cultures were pelleted (8,700 rcf, 2 min), then resuspended in 1 ml sterile EM. Competing strains were mixed, then added to flasks of 4 dpf GF (or CV fish) WT fish at ˜10^6 CFU/ml. For all competitions, sfGFP-tagged Aer01 was used as the “reference” strain. […] At 7 dpf, fish intestines were dissected as described above, and each intestine transferred into a 1.6 ml tube containing 500 μl sterile EM and ˜100 μl bullet beads, then bullet blended as described above. Homogenized samples were diluted appropriately in sterile EM, spread plated on TSA plates, incubated at 30° C. for 1-2 days, and the colonies counted. Strains were differentiated by fluorescence microscopy. Competitive index (CI) was calculated by dividing the strain ratio (test strain divided by reference strain) in the gut at the end of the competition by the strain ratio in the inoculum ((test/reference)gut/(test/reference)inoculum) (FIG. 1). The limit of detection is 5 CFU/gut; for samples were one strain was below the limit of detection, the abundance was set to 5 CFU in order to calculate a CI; this was the case for few of the samples.
To test whether WT motility, and therefore immigration into the host, could be increased with addition of ligands, competitions were performed as previously described, this time supplementing the inoculum and flask medium with SpdE ligand.

[7] = tested on: SpdE diguanylate cyclase activity in Aer01; experiment: Intracellular cyclic di-GMP quantification; format: cell-based, Aeromonas veronii; details: WT Aer01, 1 mM amino acid, ~4 hrs, versus no ligand
Description: Intracellular cyclic di-GMP quantification. […] Cultures were incubated, shaking, at 30° C. for 4 hours. Sample OD600 was measured and the entire volume pelleted. Sample pellets were resuspended in 300 μL ice cold extraction buffer (40/40/20 acetonitrile/methanol/water+0.1 N formic acid), iced for 30 min, then pelleted at maximum speed in tabletop microcentrifuge for 10 min. The supernatant was transferred to a new tube and stored at −80° until being vacuum concentrated until completely evaporated.
Dried samples were resuspended in 100 μL Ultra Performance liquid chromatography-grade water and centrifuged for two minutes at 18,000×g (Eppendorf® Centrifuge 5242R). The debris-free supernatants were moved to LCMS Certified Clear Glass 12×32 mm screw neck max recovery vials (Waters®). Ten microliters of each sample were analyzed using LC-MS/MS on a Quattro Premier XE mass spectrometer coupled with an Acquity Ultra Performance LC system (Waters®). Cyclic di-GMP was detected with electrospray ionization using multiple reaction monitoring in negative-ion mode at m/z 689.16→344.31. […]
In the case of SpdE, ligand binding to the PAS/Cache was hypothesized to regulate SpdE diguanylate cyclase activity, thereby altering intracellular levels of c-di-GMP. To test this, WT and ΔspdE Aer01 were incubated in the presence or absence of amino acid ligands for ˜4 hrs, then pelleted and lysed the cells to extract and quantify intracellular c-di-GMP.

[8] = tested on: Aer01 immigration into GF zebrafish; experiment: Migration rate experiments; format: in vivo; details: WT +/- valine
Description: Migration rate experiments. Strains were grown, shaking, overnight in TSB, at 30° C. Overnight cultures were pelleted and washed in sterile EM, then diluted to 1:100 in sterile EM, and incubated at room temperature for ˜2 hrs. If amino acid SpdE ligands were tested, amino acids were added to the prepared inoculum and fish flasks before the 2 hr incubation. GF zebrafish (5 or 6 dpf) inoculated with the cultures to yield ˜10^5 CFU/ml. The fish were then split into replicate flasks containing 10 fish and 10 ml inoculated flask EM. An EM sample was taken and plated immediately to quantify CFU/ml of the inoculating strain. […] After 24-48 hr incubation, colonies on plates were counted.
To more directly investigate differences in immigration rate, migration rate experiments were performed. Fish were mono-associated (inoculated with individual strains) via the EM, then 10 fish were dissected every 60 minutes, and the fraction of fish colonized at each time point was calculated (FIG. 3). […] This experiment assessed the ability of Aer01 variants to migrate into GF fish from the environment during initial colonization. […] After allowing 15 hrs for Aer01 to migrate from donor to recipient fish, the fish were dissected and determined the abundance of Aer01 in all fish within each flask (FIG. 6D).

[9] = SpdE-NarQ chimeric sensor β-galactosidase reporter; format: cell-based, Escherichia coli; details: expected from sensitivity of SpdE-dependent responses
Text: SpdE tandem PAS/dCache is a sensitive and specific sensor of particular amino acids. This domain is utilized for the design of novel biosensors of amino acid ligands by engineering chimeric reporter proteins fusing them to the signaling domain of an Escherichia coli protein, NarQ. NarQ is a nitrate/nitrite sensor which contains a C-terminal histidine kinase signaling domain. Here, the SpdE-NarQ hybrid protein includes the tandem PAS/dCache sensing domain (proximal and distal PAS/Cache domains) and both transmembrane domains of SpdE, and the HAMP and histidine kinase signaling domain of NarQ (FIG. 21A). When activated, the NarQ signaling domain auto-phosphorylates, then transfers the phosphoryl group to NarL, a transcriptional activator that binds nitrate-responsive promotors such as narG. In this system LacZ, a β-galactosidase, is under the control of the narG promoter, therefore activation of NarL results in expression of LacZ and increased β-galactosidase activity. The β-galactosidase activity is quantified via a colorimetric assay. Based on the sensitivity of SpdE-dependent responses in the assays disclosed herein, this hybrid protein is expected to detect ligand concentrations of 10 μM or less. […] Therefore, β-galactosidase activity will decrease with increasing ligand concentrations (e.g., FIG. 21B).

[10] = Thermofluor assay with Aer01 SpdE single residue variants; format: binding, Aeromonas veronii; details: single residue change versus wild-type Aer01 SpdE PAS/dCache
Description: as §1, with “binding. […]” for “binding.”

With C[C@H](N)C(=O)O [alanine] the “thermal shift (ΔTm) in words” value [1] was “smaller degree”.

In the case of C[C@@H](O)[C@H](N)C(=O)O [threonine], the “thermal shift (ΔTm) in words” value [1] is reported as “smaller degree”.

With O=C(O)[C@@H]1CCCN1 [proline] the biofilm formation (Aer01 [2]) was “more robust biofilms in the absence of ligand”, the motility (Aer01 [3]) was “little increase” and the “number of motile cells” value (Aer01 [3]) was “striking increase”. The “motility response in exploration assay” value (Aer01 [4]; WT Aer01, 100 nM proline) was “a response was measured”, the exploration response (Aer01 [4]) was 28.9 min and the “exploration response across proline concentrations” value (Aer01 [4]; WT Aer01, between 100 nM and 1 mM proline) was “dose-dependent response trend”. The “cellular velocity (average of median values)” value (Aer01 [5]; WT Aer01, 1 mM proline (12.6 μm/sec without ligand)) was 24.5 μm/sec, the cellular velocity change (Aer01 [5]; ΔspdE, 1 mM proline) was “did not increase” and the “CI of ΔspdE versus WT” value ([6]; 100 nM and 10 nM proline) was “reduced CI but to a much lesser extent”. The “median CI (competitive index) of ΔspdE versus WT” value [6] was 2, the “ΔTm (difference between test Tm and water control Tm)” value [1] was about 20 degrees and the “thermal shift (ΔTm) in words” value [1] was “largest shifts”. For the same molecule, the “intracellular c-di-GMP” value [7] was “significantly lower”.

In the case of CSCC[C@H](N)C(=O)O [methionine], the “thermal shift (ΔTm) in words” value [1] is reported as “smaller degree”.

For CC(C)C[C@H](N)C(=O)O [leucine], the “thermal shift (ΔTm) in words” value [1] was “smaller degree”.

With NCC(=O)O [Glycine, glycine] the “thermal shift (ΔTm) in words” value [1] was “negative amino acid control” and the “intracellular c-di-GMP” value [7] was “no change”.

For CC[C@H](C)[C@H](N)C(=O)O [isoleucine], the “thermal shift (ΔTm) in words” value [1] was “largest shifts”.

In the case of CC(C)[C@H](N)C(=O)O [valine], the biofilm formation (Aer01 [2]) is reported as “more robust biofilms in the absence of ligand”, the “number of motile cells” value (Aer01 [3]; WT Aer01, 1 μM and 1 mM ligand) is reported as “striking increase” and the motility (Aer01 [3]; WT Aer01, below 1 μM ligand) is reported as “little increase”. The exploration response (Aer01 [4]) was 13.2 min, the “median CI (competitive index) of ΔspdE versus WT” value [6] was 7 and the “thermal shift (ΔTm) in words” value [1] was “largest shifts”. The “immigration rate of WT Aer01 into fish” value [8] was “migrated into the fish faster” and the “intracellular c-di-GMP” value [7] was “significantly lower”.

B1: SpdE-NarQ hybrid protein: SpdE tandem PAS/dCache and transmembrane domains fused to HAMP and histidine kinase signaling domain of E. coli NarQ (protein)
chain: MSPAKPKNTWSLITRMRLGFLLLFIPVLLLGSIYYLHMERTLRHEQQQYLIARNTQYFHTLIEPYLATLKRQFTLIYQQVNYRDFSGPEIRNGERYLQQWQAYHKVMELDYVYVGTEHRKMLIHPSWQADEKFDPRTRPWYLLAASHPGQIVWTDPYYDYTLGTLTMALARVIKDPDGKRVGVLSLDTQLTPLASWLNSRHAQSHHLGNGYQLLLNHDGLVLAHPDRERVFKPLAHPDWLARMQQPQGFFLDDASGLMVSYYRIPEQRWILLSVEPTASMQQVIDSVSINVQLMIAVACFFYLLLALLWLNQLVTASQRIEHGQFDSPPLDTNLPNELGLLAKTFNQMSSELHKLYRSLEASVEEKTRDLHEAKRRLEVLYQCSQALNTSQIDVHCFRHILQIVRDNEAAEYLELNVGENWRISEGQPNPELPMQILPVTMQETVYGELHWQNSHVSSSEPLLNSVSSMLGRGLYFNQAQKHFQQLLLMEERATIARELHDSLAQVLSYLRIQLTLLKRSIPEDNATAQSIMADFSQALNDAYRQLRELLTTFRLTLQQADLPSALREMLDTLQNQTSAKLTLDCRLPTLALDAQMQVHLLQIIREAVLNAMKHANASEIAVSCVTAPDGNHTVYIRDNGIGIGEPKEPEGHYGLNIMRERAERLGGTLTFSQPSGGGTLVSISFRSAEGEESQLM
modifications: SpdE-NarQ fusion protein
With B1 the detectable ligand concentration [9] was at most 10 µM.

B2: W140/146A: Aer01 SpdE PAS/dCache variant, single residue change in the distal PAS/Cache (protein, listed as Aeromonas veronii)
chain: MSPAKPKNTWSLITRMRLGFLLLFIPVLLLGSIYYLHMERTLRHEQQQYLIARNTQYFHTLIEPYLATLKRQFTLIYQQVNYRDFSGPEIRNGERYLQQWQAYHKVMELDYVYVGTEHRKMLIHPSWQADEKFDPRTRPAYLLAASHPGQIVWTDPYYDYTLGTLTMALARVIKDPDGKRVGVLSLDTQLTPLASWLNSRHAQSHHLGNGYQLLLNHDGLVLAHPDRERVFKPLAHPDWLARMQQPQGFFLDDASGLMVSYYRIPEQRWILLSVEPTASMQQVIDSVSINVQLMIAVACFFYLLLALLWARYFRRMLGEITLLIRTSRSGGTAYHGSRMLELAKVYEEMDAASQDFAQIRQQANQDKLTGLYNRRFFDECLQKQLNSGAPFGVVMFDLDDFKRVNDTHGHQAGDVVLKRVSKLGMNLFHEWGWFCRYGGEELVLIFRYGEEQPMLPSLLEAFRLGVEQLEWREPDLTITISGGVAFSRSGLSAKELVELADKGVYQAKREGKNRICFPLRHTPHQSAEEGVPAFGETQQQTNEG
With B2 the “ligand binding (thermal shift)” value [10] was “reduction in ligand binding”.

B3: Y157/163A: Aer01 SpdE PAS/dCache variant, single residue change in the distal PAS/Cache (protein, listed as Aeromonas veronii)
chain: B2 chain with A140W, Y157A
With B3 the “ligand binding (thermal shift)” value [10] was “reduction in ligand binding”.
